Reference: US11072606B2, “Compositions and methods for treating diseases and conditions” (University of Pittsburgh—Of the Commonwealth System of …, priority 2014, dated 2021)
≈ marks a conversion by molar mass, not a printed value.

How the values were obtained:
[1] = test system: LPS induced lung inflammation; assay: LPS induced lung inflammation in mice (FIG. 5); assay type: in vivo; conditions: compound P.O., LPS 3 mg/kg i.t., 18 h, lavage protein, cell counts, cytokine secretion, *P<0.05 versus Vehicle
Description: BC-1421 was administered to mice though P.O., and mice were then immediately challenged with LPS (3 mg/kg, i.t.) for an additional 18 h. Mice were then euthanized and lungs were lavaged with saline, harvested, and then homogenized. Lavage protein, cell counts and cytokine secretion were measured in. The data represent n=4-5 mice/group, *P<0.05 versus Vehicle.

[2] = U937 monocyte cell death, Trypan blue staining; assay type: cell-based; conditions: human; U937 monocytes, compound for 16 hours, Trypan blue dead cells; read-out: LC50
Description: U937 monocytes (0.2 ml at 0.3×10^6/ml) were treated with each compound at different concentrations for 16 hours. The cells were then stained with Trypan blue to identify dead cells, and to calculate the LC50. Combined values were used to generate therapeutic indexes (TI)=LC50/IC50.

TNFα cytokine release = assay: LPS-induced TNFα cytokine release in PBMC (ELISA); assay type: cell-based; conditions: LPS 50 ng/ml for 16 hours concurrently with compound, TNFα by ELISA
Description: Peripheral blood mononuclear cells (PBMC) (0.2 ml at 0.3×10^6/ml) were treated with lipopolysaccharide (LPS) (50 ng/ml) for 16 hours concurrently with each compound tested at different concentrations. TNFα cytokine release was monitored by ELISA. These concentrations were used to calculate the IC50.

| Compound | LPS induced lung inflammation [1] | CC50 at 16 h [2] | IC50 (TNFα cytokine release) |
| --- | --- | --- | --- |
| Fc1cc(CNCCNCc2ccc(-c3ncccn3)c(F)c2)ccc1-c1ncccn1 [BC-1421, N^1,N^2-bis(3-fluoro-4-(pyrimidin-2-yl)benzyl)ethane-1,2-diamine] | reduces LPS induced lung inflammation |  |  |
| c1ncc(-c2ccc(CNCCNCc3ccc(-c4cncnc4)cc3)cc2)cn1 [Compound 201] |  | > 100 µg/mL | < 2 µg/mL |
| c1nnc(-c2ccc(CNCCNCc3ccc(-c4nnco4)cc3)cc2)o1 [Compound 202] |  | > 100 µg/mL | < 2 µg/mL |
| c1ncn(-c2ccc(CNCCNCc3ccc(-n4cncn4)cc3)cc2)n1 [Compound 203] |  | > 100 µg/mL | 2 to 20 µg/mL (≈ 5.34 to 53.4 µM) |
| C[C@@H](CNCc1ccc(-c2ncccn2)cc1)NCc1ccc(-c2ncccn2)cc1 [Compound 204] |  | > 100 µg/mL | < 2 µg/mL |
| C[C@H](CNCc1ccc(-c2ncccn2)cc1)NCc1ccc(-c2ncccn2)cc1 [Compound 205] |  | > 100 µg/mL | < 2 µg/mL |
| CC(C)(CNCc1ccc(-c2ncccn2)cc1)NCc1ccc(-c2ncccn2)cc1 [Compound 206] |  | > 100 µg/mL | < 2 µg/mL |
| CC(C)(NCc1ccc(-c2ncccn2)cc1)C(C)(C)NCc1ccc(-c2ncccn2)cc1 [Compound 207] |  | > 100 µg/mL | 2 to 20 µg/mL (≈ 4.42 to 44.2 µM) |
| c1ccc(-c2ncc(CNCCNCc3cnc(-c4ccccc4)nc3)cn2)cc1 [Compound 208] |  | 10 to 100 µg/mL (≈ 25.2 to 252 µM) | 2 to 20 µg/mL (≈ 5.04 to 50.4 µM) |
| c1ccc(-c2ncc(CNCCNCc3cnc(-c4ccccn4)nc3)cn2)nc1 [Compound 209] |  | 10 to 100 µg/mL (≈ 25.1 to 251 µM) | 2 to 20 µg/mL (≈ 5.02 to 50.2 µM) |
| c1nc(N2CCCC2)ncc1CNCCCCNCc1cnc(N2CCCC2)nc1 [Compound 210] |  | 1 to 10 µg/mL (≈ 2.44 to 24.4 µM) | < 2 µg/mL |
